Experimental data reported in PubChem BioAssay (NCI).
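Compound exposure: 48 hours, 5 concentrations, 96-well plates. Here, GI50 denotes the concentration required for 50% inhibition of growth. At the TGI there is no net growth.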

Legend:
Assay in all cases: NCI anticancer screen, dose series, 48 h
LXFL 529 NSCLC = tested on: LXFL 529 NSCLC
DMS 273 small cell lung = tested on: DMS 273 small cell lung
RXF-631 renal = tested on: RXF-631 renal
DMS 114 small cell lung = tested on: DMS 114 small cell lung
SNB-78 CNS = tested on: SNB-78 CNS
XF 498 CNS = tested on: XF 498 CNS
KM20L2 colon = tested on: KM20L2 colon
DLD-1 colon = tested on: DLD-1 colon
MDA-N = tested on: MDA-N

| SMILES | TGI (LXFL 529 NSCLC) | TGI (DMS 273 small cell lung) | TGI (RXF-631 renal) | TGI (DMS 114 small cell lung) | TGI (SNB-78 CNS) | TGI (XF 498 CNS) | TGI (KM20L2 colon) | TGI (DLD-1 colon) | also measured |
| --- | --- | --- | --- | --- | --- | --- | --- | --- | --- |
| COC(=O)/C(=N\NC(=S)NN)C(C(=O)C(=O)Nc1ccccc1C(N)=O)c1nc2ccccc2[nH]c1=O (stereo not drawn) | > 100 µM | > 100 µM | > 100 µM | > 100 µM | > 100 µM | > 100 µM | > 100 µM |  |  |
| CCOc1cccc2nc3cccc(C(=O)NCCN(C)C)c3nc12 | > 21.9 µM | > 100 µM | 10.5 µM | 3.7 µM | 9.3 µM | 3.52 µM | 5.48 µM | 7.66 µM |  |
| COc1ccc(C(=O)C(C(=O)CCC(=O)Nc2cccc(C(F)(F)F)c2)c2ccccc2)cc1 (stereo not drawn) | > 100 µM | > 100 µM |  | > 100 µM | > 100 µM | > 100 µM | > 100 µM | > 100 µM |  |
| C[C@H]1CCC/C=C/[C@@H]2C[C@H](N)C[C@H]2[C@H](O)/C=C/C(=O)O1 |  |  |  |  |  |  |  |  | GI50 (MDA-N): > 100 µM; TGI (MDA-N): > 100 µM |
| Cn1c(N)nc2c(nc(OCc3ccccc3)n2C2OC(CO)C(O)C2O)c1=O (stereo not drawn) |  |  |  |  |  |  |  |  | TGI (MDA-N): > 100 µM |
| N#Cc1c(N)c(C(=O)O)nn(-c2cccc(C(F)(F)F)c2)c1=O | > 100 µM |  | > 100 µM |  | > 100 µM | > 100 µM | > 100 µM | > 100 µM |  |
| Cc1ccc([N+](=O)[O-])c2c(NCCCN(C)C)ccnc12 |  |  |  |  | > 100 µM |  | 75.2 µM |  | TGI (MDA-N): 98.4 µM |
| CC1(C)OC(=O)C=C([O-])O1.CC1(C)OC(=O)C=C([O-])O1.O=c1c(O)c(-c2ccc([O-])cc2[O-])oc2cc(O)cc(O)c12.[Ti+4] | > 100 µM | > 100 µM |  | > 100 µM | > 100 µM |  | > 100 µM | > 100 µM | GI50 (LXFL 529 NSCLC): > 100 µM; GI50 (DMS 273 small cell lung): 32.2 µM; GI50 (DMS 114 small cell lung): 64.7 µM; GI50 (DLD-1 colon): > 100 µM; GI50 (SNB-78 CNS): > 100 µM; GI50 (KM20L2 colon): > 100 µM |
| C=C(COC(C)=O)CC(/C=C(\C)CCC=C(C)C)OC(C)=O (stereo not drawn) | > 100 µM | > 100 µM |  | > 100 µM | > 100 µM | > 100 µM | > 100 µM | > 100 µM |  |
| O=C1N[C@@H](O)[C@@H]2ON=C(c3ccccc3)[C@H]12 | > 100 µM | > 100 µM | > 100 µM | > 100 µM |  | > 100 µM | > 100 µM | > 100 µM |  |
| CC/C=C\C/C=C\C1CC(=O)NCCCNCCCCN1 (stereo not drawn) | > 100 µM | > 100 µM |  | > 100 µM | > 100 µM |  | > 100 µM | > 100 µM |  |
| CN(C)C(=S)/N=c1\ss/c(=N\S(=O)(=O)c2ccccc2)n1-c1ccccc1 |  | > 100 µM | > 100 µM | 50.3 µM | > 100 µM | 79.4 µM |  | > 100 µM |  |
| CC1(C)CCc2cc3c(cc2O1)OCCC3=O | > 100 µM |  | > 100 µM | > 100 µM |  | > 100 µM | > 100 µM | > 100 µM |  |
| COc1cc(/C=C/C(=N\NC(=O)c2ccccc2)c2sc(Nc3ccc(Cl)c(Cl)c3)nc2C)ccc1O | > 100 µM |  | 72.5 µM | 71.5 µM | 93.2 µM | 91.3 µM | > 100 µM | > 100 µM |  |
| CC(C)(C)C1(O)Cc2ccccc2C(=O)O1 (stereo not drawn) | > 100 µM | > 100 µM | > 100 µM | > 100 µM | > 100 µM |  | > 100 µM | > 100 µM |  |
| CC(=O)[CH-]C(C)=O.CC(=O)[CH-]C(C)=O.N=CC=N.[Sn+2] | 2.6 µM | 8.57 µM |  | 5.17 µM |  | 16.5 µM | 20.9 µM | 3.26 µM | GI50 (LXFL 529 NSCLC): 1.32 µM; GI50 (DMS 273 small cell lung): 2.91 µM; GI50 (DMS 114 small cell lung): 2.32 µM; GI50 (DLD-1 colon): 1.71 µM; GI50 (MDA-N): 1.68 µM; TGI (MDA-N): 3.69 µM; GI50 (XF 498 CNS): 6.49 µM; GI50 (KM20L2 colon): 8.54 µM |
| O=C(Nc1ccc(S(=O)(=O)N[C@@H](C(=O)O)c2ccccc2)cc1)c1ccc(F)cc1 | > 100 µM | > 100 µM |  |  |  | > 100 µM | > 100 µM | > 100 µM |  |
| COc1ccc(C2=NC(C)(C)CO2)cc1 |  | > 100 µM |  | > 100 µM | > 100 µM | > 100 µM | > 100 µM | > 100 µM |  |
| CC1=Nc2c(ccc3c2C(=O)c2ccccc2C3=O)NC(c2ccncc2)C1 (stereo not drawn) | > 100 µM | > 100 µM | > 100 µM | > 100 µM | > 100 µM | > 100 µM | > 100 µM | > 100 µM | GI50 (LXFL 529 NSCLC): > 100 µM; GI50 (DMS 273 small cell lung): > 100 µM; GI50 (SNB-78 CNS): > 100 µM; GI50 (KM20L2 colon): > 100 µM |
| COc1ccc2c(-c3cc4ccccc4o3)cc(=O)oc2c1 | > 100 µM | > 100 µM | > 100 µM |  | > 100 µM | 45 µM | > 100 µM | > 100 µM | TGI (MDA-N): > 100 µM |

| SMILES | TGI (LXFL 529 NSCLC) | TGI (DMS 273 small cell lung) | TGI (RXF-631 renal) | TGI (DMS 114 small cell lung) | TGI (SNB-78 CNS) | TGI (XF 498 CNS) | TGI (KM20L2 colon) | TGI (DLD-1 colon) | also measured |
| --- | --- | --- | --- | --- | --- | --- | --- | --- | --- |
| CC(=O)OCCOCBr | > 100 µM | > 100 µM | > 100 µM | > 100 µM |  | > 100 µM | > 100 µM | > 100 µM |  |
| NS(=O)(=O)c1ccc(NC(=O)c2cccc3c(=O)c4ccccc4[nH]c23)cc1 | > 100 µM | > 100 µM |  | > 100 µM | > 100 µM | > 100 µM | > 100 µM | > 100 µM |  |
| NC(CCSCC(F)F)C(=O)O (stereo not drawn) | > 100 µM | > 100 µM | > 100 µM | > 100 µM | > 100 µM | > 100 µM | > 100 µM | > 100 µM |  |
| CCCCCC(C(O)C#N)C(O)(C(F)(F)F)C(F)(F)F (stereo not drawn) |  |  |  |  |  |  |  |  | TGI (MDA-N): > 10 µM |
| c1cc[c]([Sn]([S]c2cccc3cccnc23)([c]2ccccc2)[c]2ccccc2)cc1 | 0.0548 µM | 0.0344 µM | 0.0804 µM |  | 0.0659 µM | 0.0524 µM | 0.109 µM | 0.101 µM | GI50 (LXFL 529 NSCLC): 0.0209 µM; GI50 (DMS 273 small cell lung): 0.0173 µM; GI50 (RXF-631 renal): 0.0256 µM; GI50 (DLD-1 colon): 0.0321 µM; GI50 (SNB-78 CNS): 0.0203 µM; GI50 (XF 498 CNS): 0.0241 µM; GI50 (KM20L2 colon): 0.0338 µM |
| COc1ccc(/C=C/C(=O)c2sc(-n3nc(-c4ccccc4)cc3-c3ccccc3)nc2C)cc1OC | > 100 µM | > 100 µM | > 100 µM | > 100 µM |  | > 100 µM | 63.7 µM | > 100 µM |  |
| Cc1ncc([N+](=O)[O-])n1CCNC(=O)CCCCn1ccnc1[N+](=O)[O-] |  |  |  |  |  |  |  |  | TGI (MDA-N): > 100 µM |
| NC1=NC(=O)C(CC(=O)Nc2ccc([N+](=O)[O-])cc2[N+](=O)[O-])S1 (stereo not drawn) | > 100 µM |  | > 100 µM | > 100 µM | > 100 µM | > 100 µM | > 100 µM | > 100 µM |  |
| Clc1ccc(CNc2nc3ccccc3nc2-c2cccs2)c(Cl)c1 | > 100 µM | > 100 µM | > 100 µM |  | > 100 µM | > 100 µM | > 100 µM |  |  |
| Oc1c(Br)cc(CN(Cc2cc(Br)c(O)c(Br)c2)C2CCCCC2)cc1Br |  |  |  |  |  |  |  |  | TGI (MDA-N): > 100 µM |
| COc1ccc2c(c1)[C@@]13CCN4CC5=CCO[C@H]6CC(=O)N2[C@H]1[C@H]6[C@H]5C[C@H]43 |  |  |  |  |  |  |  |  | TGI (MDA-N): > 100 µM |
| O=C1CCn2c([nH]c3cccc4cccc2c43)=N1 | > 100 µM | > 100 µM |  | > 100 µM | > 100 µM | > 100 µM | > 100 µM |  |  |
| CCOC(=O)Cc1nc(/C(C#N)=C/c2ccco2)[nH]c(=O)c1C#N | > 100 µM | > 100 µM |  |  | 93.9 µM |  | > 100 µM | > 100 µM |  |
| Cc1c(-c2nc(N)nc(C3CC3)c2C)nc(N)nc1C1CC1 |  |  |  |  |  |  |  |  | TGI (MDA-N): > 100 µM |
| CC(O)CN1C(=O)NC(Cc2ccccc2)C1=O (stereo not drawn) | > 100 µM | > 100 µM |  | > 100 µM | > 100 µM | > 100 µM | > 100 µM | > 100 µM |  |
| CC1CCCC(C(=O)/C(=C/c2cccc(Cl)c2)C(=O)C(=O)O)C1 (stereo not drawn) | 43 µM | > 100 µM |  | 45.7 µM | > 100 µM |  | 90 µM | 40.3 µM |  |
| Oc1c2c(c(O)c3ccccc13)=N[C@@H](c1ccccc1)[C@H](c1ccccc1)N=2 | > 100 µM | > 100 µM |  | > 100 µM | > 100 µM | > 100 µM |  | > 100 µM |  |
| COc1cc(/C=C\c2ccc(O)cc2)cc(OC)c1OC | > 100 µM | 2.9 µM |  |  | 8.3 µM | > 100 µM | > 100 µM | > 100 µM |  |
| CN1CCN(C)C1c1cccc(C2N(C)CCN2C)c1 | > 100 µM | > 100 µM | > 100 µM | > 100 µM | > 100 µM |  | > 100 µM | > 100 µM |  |
| O=c1c2ccccc2c2c3c1cccc3c1cccc3c(=O)c4ccccc4c2c31 | > 100 µM | > 100 µM | > 100 µM | > 100 µM | > 100 µM |  | > 100 µM | > 100 µM |  |
